These results are taken from US20120328696A1, “ANTI-PARKINSONIAN COMPOUND ACETYLSALICYLIC ACID MALTOL ESTER” (Hutecs Korea Pharmaceutical Co., Ltd., priority 2008, published 2012).

Format in all cases: in vivo
One experiment deals with cleaved PKCδ. In words: Striatal cleaved PKCδ expression after MA (western blot). Particulars: MA 8 mg/kg i.p. x4, GPx-1 (+/+) and (−/−) mice; for effect on MA-induced striatal cleaved PKCδ expression: p.o., AME 25 or 50, EBS 10 or 20, rottlerin 10 or 20 mg/kg. How it is done: (§1) The mice received four times of MA (8 mg/kg, ip) or saline as a 2 hr-time interval. Chemicals (AME, EBS, and PKC inhibitors) were administrated for 5 consecutive days (twice daily), and were given 2 times at 4 hr and 30 min before the first MA injection as shown in the experimental schedule. Animals were sacrificed at 4 hrs and 3 days after the final MA administration.
Tissues were homogenized in lysis buffer, containing 200 mM Tris HCl (pH 6.8), 1% SDS, 5 mM EGTA (ethylene glycol tetraacetic acid), 5 mM EDTA (ethylenediaminetetraacetic acid), 10% glycerol, 1× phosphatase inhibitor cocktail I, 1× protease inhibitor cocktail. Lysate was centrifuged at 12,000×g for 30 min and supernatant fraction was used for Western blot analysis. […] And then, membranes were incubated with HRP-conjugated secondary anti-rabbit IgG (1:1000, GE healthcare, Piscataway, N.J., USA), anti-mouse IgG (1:1000, Sigma) or anti-goat IgG (1:1000, Sigma) for 2 h. Subsequent visualization was performed using enhanced chemiluminescence system (ECL Plus®, GE healthcare).

Experiment [1] deals with dopamine (DA), DOPAC, HVA. In words: Striatal DA, DOPAC and HVA after MA (HPLC). The note with it: p.o.; AME 50, EBS 20, rottlerin 20 mg/kg; MA 8 mg/kg i.p. x4; GPx-1 (+/+) and (−/−) mice. The protocol:
as §1
At 3 day after last MA injection, mice were killed by cervical dislocation and the brains were removed. Striatum was dissected and immediately frozen on dry ice, and stored at −70° C. until extraction. Striatum obtained from each animal was weighed, ultrasonicated in 10% perchloric acid containing 10 ng/mg of the internal standard dihydroxybenzylamine, and centrifuged at 20,000×g for 10 min. The levels of DA and its metabolites 3,4-dihydroxyphenylacetic acid (DOPAC) and homovanillic acid (HVA) in brain tissue extracts were determined by HPLC coupled with electrochemical detection as described (Kim et al., 1999). The 20 μl aliquot of the supernatant was injected into the HPLC equipped with a 3 μm C18 column. The mobile phase was comprised of 26 ml of acetonitrile, 21 ml of tetrahydrofuran and 960 ml of 0.15M monochloroacetic acid (pH 3.0) containing 50 mg/l of EDTA and 200 mg/l of sodium octyl sulfate. The amount of DA, DOPAC and HVA were determined by comparison of peak area of tissue sample with standard, and were expressed in nanograms per gram of wet tissue.

A further experiment has as its system cyclooxygenase (COX)-2. Kind of experiment: COX-2 expression after MA (western blot). The note with it: p.o.; AME 50, EBS 20, rottlerin 20 mg/kg; MA 8 mg/kg i.p. x4; GPx-1 (+/+) and (−/−) mice. How it is done:
as §1
(§2) The western blot assays was performed as described previously (Kim et al., 2003). Tissues were homogenized in lysis buffer, containing 200 mM Tris HCl (pH 6.8), 1% SDS, 5 mM EGTA (ethylene glycol tetraacetic acid), 5 mM EDTA (ethylenediaminetetraacetic acid), 10% glycerol, 1× phosphatase inhibitor cocktail I, 1× protease inhibitor cocktail. Lysate was centrifuged at 12,000×g for 30 min and supernatant fraction was used for Western blot analysis. Proteins (20-50 ug/lane) were separated by 6%, 8%, 10% or 15% sodium dodecyl sulfate-polyacrylamide gel electrophoresis and transferred onto the PVDF membranes. Following transfer, the membranes were preincubated with 5% non-fat milk and incubated overnight at 4° C. with primary antibody against β-actin (1:50000, Sigma, St. Louis, Mo., USA), TH (1:5000, Chemicon), TH phosphor-Ser 19 (1:1000, Chemicon,), TH phosphor-Ser 31 (1:500, Chemicon), TH phosphor-Ser 40 (1:500, Chemicon), F4/80 (1:500, Serotec), GPx1 (1:2500, AbFrontier), PKC (1:5000, Santa Cruz biotechnology, Santa Cruz, Calif., USA), p53 (1:5000, Cell signaling, Beverly, Mass., USA), MDM2 (1:1000, BD Pharmingen, San Jose, Calif., USA), MDM2 phospho-Ser 166 (1:1000, cell signaling), BDNF (1:500, Chemicon), GDNF (1:250, Santa Cruz), COX-2 (1:2000, Cayman, Ann Arbor, MC, USA), IL-6 (1:2000, Abcam, Cambridge, Mass., USA), TNF-a (1:1000, R&D Systems, Mckinley place NE, NM, USA), IFN-γ (1:500, Chemicon) or Iba-1 (1:500, Wako, Osaka, Japan). And then, membranes were incubated with HRP-conjugated secondary anti-rabbit IgG (1:1000, GE healthcare, Piscataway, N.J., USA), anti-mouse IgG (1:1000, Sigma) or anti-goat IgG (1:1000, Sigma) for 2 h. […]
(Immunoblotting shows a protein as a band on a membrane.)

The test system of the next experiment is interferon (IFN)-γ. In words: IFN-γ expression after MA (western blot). The note with it: p.o.; AME 50, EBS 20, rottlerin 20 mg/kg; MA 8 mg/kg i.p. x4; GPx-1 (+/+) and (−/−) mice. How it is done: as §1, §2
A further experiment relates to MDA, 4-HNE. Kind of experiment: Striatal lipid peroxidation (MDA, 4-HNE) after MA. The note with it: MDA and 4-HNE; striatum, 3 days after final MA; p.o.; AME 50, EBS 20, rottlerin 20 mg/kg; GPx-1 (+/+) and (−/−) mice. How it is done: as §1
The amount of lipid peroxidation was assessed by measuring the accumulation of thiobarbituric acid-reactive substance in homogenates of striatal tissue and is expressed as malondialdehyde (MDA) content (Kim et al., 1999, 2000b, 2002). In brief, 0.1 ml of the homogenate (or standard solutions prepared daily from 1,1,3,3-tetra-methoxypropane) and 0.75 ml of the working solution (thiobarbituric acid 0.37% and perchloric acid 6.4%, 2:1 v/v) were mixed and heated in a water bath to 95° C. for 1 h. After cooling (10 min in ice water bath), the flocculent precipitate was removed by centrifugation at 3200×g for 10 min. The supernatant was neutralized and filtered prior to injection on an ODS 5 μm column. Mobile phase consisted of 50 mM PBS (pH 6.0): methanol (58:42, v/v). Isocratic separation was performed with 1.0 ml/min flow rate and detection at 532 nm using a UV/VIS HPLC-Detector (Model 486, Waters Associates, Milford, Mass., USA). MDA values were expressed as nmole/mg protein.
4-hydroxy-2-nonenal (4HNE) is major product of the lipid peroxidation process (Benedetti et al., 1980). Determining of 4HNE was performed as slot blot analysis (Zhang et al., 2000). Briefly, following transfer, the PVDF membranes were preincubated with 5% non-fat milk and incubated overnight at 4° C. with anti-4HNE (1:2000, Calbiochem, San Diego, Calif., USA). After incubation with primary antibody, membranes were incubated with a HRP-conjugated secondary antibody. Subsequent visualization was performed using enhanced chemiluminescence system (ECL Plus®, GE healthcare).

With `CC(=O)Oc1ccccc1C(=O)Oc1c(C)occc1=O` [AME, 3-(2-methyl-4-pyronyl)-2-acetyloxybenzoate], the “effect on MA-induced striatal cleaved PKCδ expression” value in the experiment on cleaved PKCδ is “significantly reduced MA-induced the PKCδ- and cleaved PKCδ-expressions in a dose-related manner”. Moreover, in experiment [1], the “effect on MA-induced change in DA turnover rate” value is given as “significantly attenuated MA-induced dopaminergic impairment”, the “effect on MA-induced change in striatal DA level” value was “significantly attenuated MA-induced dopaminergic impairment”, the “effect on MA-induced change in striatal DOPAC level” value is recorded as “significantly attenuated MA-induced dopaminergic impairment” and the “effect on MA-induced change in striatal HVA level” value was “significantly attenuated MA-induced dopaminergic impairment”. For the same molecule, the “effect on MA-induced increase in COX-2 expression” value with cyclooxygenase (COX)-2 is “significantly and consistently attenuating effects”. Moreover, the “effect on MA-induced increase in IFN-γ expression” value in the experiment on interferon (IFN)-γ was “significantly and consistently attenuating effects”. Further, the “effect on MA-induced increase in lipid peroxidation” value in the experiment with MDA, 4-HNE is given as “significantly attenuated”.
In the case of `O=c1c2ccccc2[se]n1-c1ccccc1` [EBS, 2-phenyl-1,2-benzisoselenazol-3(2H)-one], in the experiment on cleaved PKCδ, the “effect on MA-induced striatal cleaved PKCδ expression” value was “significantly reduced MA-induced the PKCδ- and cleaved PKCδ-expressions in a dose-related manner”. Further, in experiment [1], the “effect on MA-induced change in DA turnover rate” value is reported as “significantly attenuated MA-induced dopaminergic impairment”, the “effect on MA-induced change in striatal DA level” value is reported as “significantly attenuated MA-induced dopaminergic impairment”, the “effect on MA-induced change in striatal DOPAC level” value is on record as “significantly attenuated MA-induced dopaminergic impairment” and the “effect on MA-induced change in striatal HVA level” value is recorded as “significantly attenuated MA-induced dopaminergic impairment”. For the same molecule, the “effect on MA-induced increase in COX-2 expression” value in the experiment with cyclooxygenase (COX)-2 was “significantly and consistently attenuating effects”. For the same molecule, in the experiment on interferon (IFN)-γ, the “effect on MA-induced increase in IFN-γ expression” value is “significantly and consistently attenuating effects”. Besides, the “effect on MA-induced increase in lipid peroxidation” value in the experiment on MDA, 4-HNE is “significantly attenuated”.
`CC(=O)c1c(O)c(C)c(O)c(Cc2c(O)c3c(c(C(=O)/C=C/c4ccccc4)c2O)OC(C)(C)C=C3)c1O` [rottlerin]: the “effect on MA-induced increase in striatal cleaved PKCδ expression” value in the experiment with cleaved PKCδ (intra-striatal) is “attenuated the MA-induced increases in PKCδ expressions in a dose-dependent manner”. Besides, in the experiment on cleaved PKCδ, the “effect on MA-induced striatal cleaved PKCδ expression” value is “significantly reduced MA-induced the PKCδ- and cleaved PKCδ-expressions in a dose-related manner”. Besides, in experiment [1], the “effect on MA-induced change in DA turnover rate” value is listed as “significantly attenuated MA-induced dopaminergic impairment”, the “effect on MA-induced change in striatal DA level” value is given as “significantly attenuated MA-induced dopaminergic impairment”, the “effect on MA-induced change in striatal DOPAC level” value was “significantly attenuated MA-induced dopaminergic impairment” and the “effect on MA-induced change in striatal HVA level” value is given as “significantly attenuated MA-induced dopaminergic impairment”. In addition, in the experiment with cyclooxygenase (COX)-2, the “effect on MA-induced increase in COX-2 expression” value was “significantly and consistently attenuating effects”. Besides, the “effect on MA-induced increase in IFN-γ expression” value with interferon (IFN)-γ is “significantly and consistently attenuating effects”. Further, the “effect on MA-induced increase in lipid peroxidation” value in the experiment on MDA, 4-HNE is “significantly attenuated”.
